# From patent US5073563A, “Alkoxycoumarins substituted by a heterocyclic radical, their preparation and therapeutic agents containing these compounds” (BASF Aktiengesellschaft, priority 1988, dated 1991)
# What was measured:
# [1] = literature test; cited from earlier work
# [2] = literature test; cited from earlier work; remark: listed apart in the source
# MAO B = biological target: T1, MAO B (Rattus norvegicus, UniProt P19643); test: MAO B inhibition in dilute rat brain homogenate (14C substrate, 20 min at 37° C); format: biochemical; settings: for IC50 ratio MAO A / MAO B: quotient of IC50 MAO A and IC50 MAO B (selectivity for MAO B), 20 min; for IC50: rat brain homogenate, 14C-phenylethylamine or 14C-tryptamine 0.4 μmol/l, 20 minutes at 37° C, logit-log regression
# T1 construct: determined in dilute rat brain homogenate; from tissue; host or cells: rat brain homogenate
# T1 sequence (P19643 1-520): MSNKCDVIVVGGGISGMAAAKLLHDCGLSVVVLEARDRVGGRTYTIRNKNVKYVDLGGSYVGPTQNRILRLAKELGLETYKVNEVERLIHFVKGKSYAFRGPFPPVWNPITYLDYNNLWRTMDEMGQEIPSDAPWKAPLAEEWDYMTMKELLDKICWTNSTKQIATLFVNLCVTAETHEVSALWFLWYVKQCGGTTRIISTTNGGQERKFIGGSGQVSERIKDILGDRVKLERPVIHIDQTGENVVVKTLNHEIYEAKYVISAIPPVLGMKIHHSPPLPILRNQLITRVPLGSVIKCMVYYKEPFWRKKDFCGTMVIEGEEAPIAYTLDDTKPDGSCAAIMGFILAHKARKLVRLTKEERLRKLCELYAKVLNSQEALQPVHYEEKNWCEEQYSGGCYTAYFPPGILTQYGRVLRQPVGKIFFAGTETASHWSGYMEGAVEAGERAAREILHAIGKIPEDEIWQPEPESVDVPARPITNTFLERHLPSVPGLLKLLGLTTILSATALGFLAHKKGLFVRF
# Procedure: (§1) The MAO-inhibiting activity of the novel compounds can be determined using standard methods. […] The mixture was incubated for 20 minutes at 37° C.
# (§2) The blank value was determined in similar mixtures with an incubation time of t=0 min.
# (§3) From the inhibitory values determined at the various inhibitor concentrations against a control, the mean inhibitory concentration (IC50) was calculated by linear regression following logit-log transformation.
# MAO A = biological target: T2, MAO A (Rattus norvegicus, UniProt P21396); test: MAO A inhibition in dilute rat brain homogenate (14C substrate, 20 min at 37° C); format: biochemical; settings: 14C-phenylethylamine or 14C-tryptamine 0.4 μmol/l, logit-log regression
# T2 construct: determined in dilute rat brain homogenate; from tissue; host or cells: rat brain homogenate
# T2 sequence (P21396 1-526): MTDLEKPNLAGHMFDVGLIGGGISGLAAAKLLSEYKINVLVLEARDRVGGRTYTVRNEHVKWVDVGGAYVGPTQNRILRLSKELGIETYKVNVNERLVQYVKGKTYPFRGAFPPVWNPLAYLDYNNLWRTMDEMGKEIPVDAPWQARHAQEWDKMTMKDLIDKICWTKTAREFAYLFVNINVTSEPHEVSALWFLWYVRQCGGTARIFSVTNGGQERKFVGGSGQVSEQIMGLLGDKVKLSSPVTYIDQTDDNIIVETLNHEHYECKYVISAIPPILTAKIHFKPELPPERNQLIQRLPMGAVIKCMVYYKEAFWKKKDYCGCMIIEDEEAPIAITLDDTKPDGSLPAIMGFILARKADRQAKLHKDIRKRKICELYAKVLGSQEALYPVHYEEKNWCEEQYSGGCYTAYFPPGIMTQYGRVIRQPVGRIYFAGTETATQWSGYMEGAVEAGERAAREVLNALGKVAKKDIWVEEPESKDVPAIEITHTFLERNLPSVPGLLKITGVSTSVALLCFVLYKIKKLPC
# Procedure: as §1, §2, §3
smiles,measurement,setting,value
Cc1cc(=O)oc2cc(OCc3cc(-c4ccccc4)no3)ccc12 [4-methyl-7-(3-phenylisoxazol-5-yl-methoxy)-coumarin],fungicidal action,[1],little or no success
same,bacteriostatic action,[2],little or no success
Cc1c(C)c2ccc(OCc3cc(C4(C)CC4)no3)cc2oc1=O [Example 96],IC50 ratio MAO A / MAO B,MAO B,~ 32000
same,IC50,MAO B,0.61 nM
same,IC50,MAO A,~20000 nM
"Cc1c(C)c2ccc(OCc3cc(C4CCOC4)no3)cc2oc1=O (centres unmarked) [Example 97, 3,4-Dimethyl-7-[3-(tetrahydrofuran-3-yl)-isoxazol-5-yl]-methoxycoumarin]",IC50 ratio MAO A / MAO B,MAO B,~ 1400
same,IC50,MAO B,3.6 nM
same,IC50,MAO A,~5000 nM
Cc1c(C)c2ccc(OCc3nc(C4CCCC4)no3)cc2oc1=O [Example 98],IC50 ratio MAO A / MAO B,MAO B,> 11000
same,IC50,MAO B,0.92 nM
same,IC50,MAO A,> 10000 nM
"Cc1c(C)c2ccc(OCc3cc(C4CCCCC4)no3)cc2oc1=O [Example 99, 3,4-Dimethyl-7-(3-cyclohexylisoxazol-5-yl)-methoxycoumarin]",IC50 ratio MAO A / MAO B,MAO B,> 1200
same,IC50,MAO B,8.2 nM
same,IC50,MAO A,> 10000 nM
"Cc1c(C)c2cc(Cl)c(OCc3ccccn3)cc2oc1=O [Example 100, 6-Chloro-3,4-dimethyl-7-(2-pyridinyl)-methoxycoumarin]",IC50 ratio MAO A / MAO B,MAO B,> 13000
same,IC50,MAO B,0.74 nM
same,IC50,MAO A,> 10000 nM
"Cc1nnc(COc2cc3oc(=O)c(Cl)c(C)c3cc2Cl)s1 [Example 101, 3,6-Dichloro-4-methyl-7-(5-methyl-1,3,4-thiadiazol-2-yl)-methoxycoumarin]",IC50 ratio MAO A / MAO B,MAO B,> 10000
same,IC50,MAO B,1 nM
same,IC50,MAO A,> 10000 nM
"Cc1c(Cl)c(=O)oc2cc(OCc3csc(C(C)C)n3)c(Cl)cc12 [Example 103, 3,6-Dichloro-4-methyl-7-(2-isopropylthiazol-4-yl)-methoxycoumarin]",IC50 ratio MAO A / MAO B,MAO B,> 5500
same,IC50,MAO B,1.8 nM
same,IC50,MAO A,> 10000 nM
